# Assay: Cycle 3 dosimetry (TACs of cycle 1 scaled to cycle 3 time points)
# Type: in vivo, human
# Conditions: for Absorbed Dose in Cycle 3, Mean / Absorbed Dose in Cycle 3, max / Absorbed Dose in Cycle 3, min: N = 16
# Experimental: (§1) To evaluate potential changes in the tracer's kinetics and uptake after multiple treatment cycles, 16 of the 27 patients included in the dosimetry sub study, were imaged at both cycle 1 and cycle 3. Among these, at cycle 3, three patients were imaged at all 4 timepoints and the other 13 were imaged at one or two timepoints only (24 h, 48 h or both 24 h and 48 h) (Table 2). For these 13 patients, the TACs obtained at cycle 1 were used for each source organ and scaled to the normalized activity value(s) measured at Cycle 3. For patients imaged at two timepoints, the TACs were preferably scaled using the average scaling factor between the two timepoints.
# A subgroup of 16 out of the 27 patients underwent and additional dosimetry assessment at Cycle 3. Among these, three patients had dosimetry performed based on images taken at 4 timepoints, while the remaining patients had dosimetry performed at 1 or 2 imaging timepoints only.
# as §1, with “7 in Appendix 1).” for “2).”
# [1] = Lacrimal Glands (OLINDA sphere model)
# [2] = Lacrimal Glands, OLINDA sphere model
structure (smiles),measurement,setting,value
"O=C([O-])CC[C@H](NC(=O)N[C@@H](CCCCNC(=O)CCCCCCC(=O)NCCCC[C@@H](NC(=O)[C@@H](Cc1ccccc1)NC(=O)[C@@H](Cc1ccc(O)c(I)c1)NC(=O)CC[C@H](C(=O)[O-])N1CCN(CC(=O)[O-])CCN(CC(=O)[O-])CCN(CC(=O)[O-])CC1)C(=O)[O-])C(=O)[O-])C(=O)[O-].[177Lu+3].[H+].[H+].[H+].[H+].[H+] [^177Lu-PSMA I&T, (3S,7S,26R,29R,32R,37R)-29-benzyl-32-(4-hydroxy-3-iodobenzyl)-5,13,20,28,31,34-hexaoxo-37-(4,7,10-tris(carboxymethyl)-1,4,7,10-tetraazacyclododecan-1-yl)-4,6,12,21,27,30,33-heptaazaheptatriacontane-1,3,7,26,37-pentacarboxylic acid; lutetium-177 (III)]","Absorbed Dose in Cycle 3, Mean",Adrenals,0.02 Gy/GBq
same,"Absorbed Dose in Cycle 3, max",Adrenals,0.03 Gy/GBq
same,"Absorbed Dose in Cycle 3, min",Adrenals,0.01 Gy/GBq
same,"Absorbed Dose in Cycle 3, Mean",Brain,0.01 Gy/GBq
same,"Absorbed Dose in Cycle 3, max",Brain,0.02 Gy/GBq
same,"Absorbed Dose in Cycle 3, min",Brain,0.00 Gy/GBq
same,"absorbed radiation dose, kidneys (mean ± SD)","Cycle 3, 16 patients imaged at cycle 1 and 3",0.49±0.19 Gy/GBq
same,"Absorbed Dose in Cycle 3, Mean",Esophagus,0.01 Gy/GBq
same,"Absorbed Dose in Cycle 3, max",Esophagus,0.02 Gy/GBq
same,"Absorbed Dose in Cycle 3, min",Esophagus,0.00 Gy/GBq
same,"Absorbed Dose in Cycle 3, Mean",Eyes,0.01 Gy/GBq
same,"Absorbed Dose in Cycle 3, max",Eyes,0.02 Gy/GBq
same,"Absorbed Dose in Cycle 3, min",Eyes,0.00 Gy/GBq
same,"Absorbed Dose in Cycle 3, Mean",Gallbladder wall,0.01 Gy/GBq
same,"Absorbed Dose in Cycle 3, max",Gallbladder wall,0.02 Gy/GBq
same,"Absorbed Dose in Cycle 3, min",Gallbladder wall,0.00 Gy/GBq
same,"Absorbed Dose in Cycle 3, Mean",Heart wall,0.01 Gy/GBq
same,"Absorbed Dose in Cycle 3, max",Heart wall,0.02 Gy/GBq
same,"Absorbed Dose in Cycle 3, min",Heart wall,0.00 Gy/GBq
same,"Absorbed Dose in Cycle 3, Mean",Kidneys,0.49 Gy/GBq
same,"Absorbed Dose in Cycle 3, max",Kidneys,0.85 Gy/GBq
same,"Absorbed Dose in Cycle 3, min",Kidneys,0.19 Gy/GBq
same,"Absorbed Dose in Cycle 3, Mean",[1],0.29 Gy/GBq
same,"Absorbed Dose in Cycle 3, max",[1],0.73 Gy/GBq
same,"Absorbed Dose in Cycle 3, min",[1],0.10 Gy/GBq
same,"Absorbed Dose in Cycle 3, Mean",[2],0.29 Gy/GBq
same,"Absorbed Dose in Cycle 3, max",[2],0.73 Gy/GBq
same,"Absorbed Dose in Cycle 3, min",[2],0.10 Gy/GBq
same,"Absorbed Dose in Cycle 3, Mean",Left colon,0.41 Gy/GBq
same,"Absorbed Dose in Cycle 3, max",Left colon,0.94 Gy/GBq
same,"Absorbed Dose in Cycle 3, min",Left colon,0.07 Gy/GBq
same,"Absorbed Dose in Cycle 3, Mean",Liver,0.06 Gy/GBq
same,"Absorbed Dose in Cycle 3, max",Liver,0.15 Gy/GBq
same,"Absorbed Dose in Cycle 3, min",Liver,0.00 Gy/GBq
same,"Absorbed Dose in Cycle 3, Mean",Lungs,0.01 Gy/GBq
same,"Absorbed Dose in Cycle 3, max",Lungs,0.02 Gy/GBq
same,"Absorbed Dose in Cycle 3, min",Lungs,0.00 Gy/GBq
same,"Absorbed Dose in Cycle 3, Mean",Osteogenic cells,0.02 Gy/GBq
same,"Absorbed Dose in Cycle 3, max",Osteogenic cells,0.09 Gy/GBq
same,"Absorbed Dose in Cycle 3, min",Osteogenic cells,0.00 Gy/GBq
same,"Absorbed Dose in Cycle 3, Mean",Pancreas,0.01 Gy/GBq
same,"Absorbed Dose in Cycle 3, max",Pancreas,0.02 Gy/GBq
same,"Absorbed Dose in Cycle 3, min",Pancreas,0.00 Gy/GBq
same,"Absorbed Dose in Cycle 3, Mean",Prostate,0.01 Gy/GBq
same,"Absorbed Dose in Cycle 3, max",Prostate,0.02 Gy/GBq
same,"Absorbed Dose in Cycle 3, min",Prostate,0.01 Gy/GBq
same,"Absorbed Dose in Cycle 3, Mean",Rectum,0.39 Gy/GBq
same,"Absorbed Dose in Cycle 3, max",Rectum,0.90 Gy/GBq
same,"Absorbed Dose in Cycle 3, min",Rectum,0.06 Gy/GBq
same,"Absorbed Dose in Cycle 3, Mean",Red Marrow,0.03 Gy/GBq
same,"Absorbed Dose in Cycle 3, max",Red Marrow,0.17 Gy/GBq
same,"Absorbed Dose in Cycle 3, min",Red Marrow,0.00 Gy/GBq
same,"Absorbed Dose in Cycle 3, Mean",Right Colon,0.22 Gy/GBq
same,"Absorbed Dose in Cycle 3, max",Right Colon,0.51 Gy/GBq
same,"Absorbed Dose in Cycle 3, min",Right Colon,0.04 Gy/GBq
same,"Absorbed Dose in Cycle 3, Mean",Salivary Glands,0.20 Gy/GBq
same,"Absorbed Dose in Cycle 3, max",Salivary Glands,0.69 Gy/GBq
same,"Absorbed Dose in Cycle 3, min",Salivary Glands,0.04 Gy/GBq
same,"Absorbed Dose in Cycle 3, Mean",Small intestine,0.04 Gy/GBq
same,"Absorbed Dose in Cycle 3, max",Small intestine,0.10 Gy/GBq
same,"Absorbed Dose in Cycle 3, min",Small intestine,0.01 Gy/GBq
same,"Absorbed Dose in Cycle 3, Mean",Spleen,0.03 Gy/GBq
same,"Absorbed Dose in Cycle 3, max",Spleen,0.12 Gy/GBq
same,"Absorbed Dose in Cycle 3, min",Spleen,0.01 Gy/GBq
same,"Absorbed Dose in Cycle 3, Mean",Stomach Wall,0.01 Gy/GBq
same,"Absorbed Dose in Cycle 3, max",Stomach Wall,0.02 Gy/GBq
same,"Absorbed Dose in Cycle 3, min",Stomach Wall,0.00 Gy/GBq
same,"Absorbed Dose in Cycle 3, Mean",Testes,0.01 Gy/GBq
same,"Absorbed Dose in Cycle 3, max",Testes,0.02 Gy/GBq
same,"Absorbed Dose in Cycle 3, min",Testes,0.00 Gy/GBq
same,"Absorbed Dose in Cycle 3, Mean",Thymus,0.01 Gy/GBq
same,"Absorbed Dose in Cycle 3, max",Thymus,0.02 Gy/GBq
same,"Absorbed Dose in Cycle 3, min",Thymus,0.00 Gy/GBq
same,"Absorbed Dose in Cycle 3, Mean",Thyroid,0.01 Gy/GBq
same,"Absorbed Dose in Cycle 3, max",Thyroid,0.02 Gy/GBq
same,"Absorbed Dose in Cycle 3, min",Thyroid,0.00 Gy/GBq
same,"Absorbed Dose in Cycle 3, Mean",Total Body,0.02 Gy/GBq
same,"Absorbed Dose in Cycle 3, max",Total Body,0.03 Gy/GBq
same,"Absorbed Dose in Cycle 3, min",Total Body,0.01 Gy/GBq
same,"Absorbed Dose in Cycle 3, Mean",Urinary Bladder wall,0.45 Gy/GBq
same,"Absorbed Dose in Cycle 3, max",Urinary Bladder wall,0.70 Gy/GBq
same,"Absorbed Dose in Cycle 3, min",Urinary Bladder wall,0.36 Gy/GBq

# From US20250032651A1, “[177LU] LUTETIUM-PSMA I&T COMPOSITION AND DOSIMETRY, KIT, METHOD OF MAKING, AND METHOD OF USING THEREOF” (Curium US LLC, priority 2022, published 2025)
